Measurements taken from the supplement of paper PMC11208160.

Assay: recombinant barcode read abundance after kanamycin selection (control-corrected) (log10(CPM+1)); higher = more efficient recombination; sequences stand for … in AGTGCAGAGAAAATCGGCCAGTTTTCTCTGCCTGCAGTCCGCATGCCGT…AGATTTATGCAGCGGACTGCCTTTCTCCCAAAGTGATAAACCGGACAGTATCATGGACCGGTTTTCCCGGTAATCCGTATTTGCAAGGTTGGTTTCACT; site = the 11-nt target
In short: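 In E. coli, a pooled library matched targets to IS621 bridge RNA target-binding loops and was introduced alongside a donor plasmid. Cells went onto chloramphenicol/ampicillin/kanamycin with 0.1 mM IPTG or onto chloramphenicol/ampicillin LB agar as control, in duplicate. Recombination efficiency, from recombinant-junction barcodes as counts per million, is averaged and control-corrected. It is reported as log10(CPM+1).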
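Further: IS621 recombinase and bridge RNA in Escherichia coli cells.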

Row | Sequence | recombinant barcode read abundance (log10)
1 | CGGAATCCTTGGGTTCTAACCTGTTGCGT (site CGGAATCCTAC) | 2.33
2 | CGGAATCCTTGGGTTCTAACCTGTTGCGT (site CGGAATCCTAG) | 0.345
3 | CGGAATCCTTGGGTTCTAACCTGTTGCGT (site CGGAATCCTAT) | 1.19
4 | CGGACGTCTTGGGTTCTAACCTGTTGCTG (site CGGACGTCTCA) | 1.69
5 | CGGACGTCTTGGGTTCTAACCTGTTGCTG (site CGGGCGTCTAA) | 0.0605
6 | CGGACTGCTTGGGTTCTAACCTGTTGCCT (site ACCTGACCTCC) | 0.0853
7 | CGGACTGCTTGGGTTCTAACCTGTTGCCT (site CGGACTGCTAG) | 0.374
8 | CGGAGCCCTTGGGTTCTAACCTGTTGCCA (site CGGAACCCTCG) | 0.0889
9 | CGGAGCCCTTGGGTTCTAACCTGTTGCCA (site CGGAGCCCTTG) | 0.883
10 | CGGAGTCCTTGGGTTCTAACCTGTTGCTA (site CGGAGTCCTTA) | 0.774
11 | CGGAGTCCTTGGGTTCTAACCTGTTGCTA (site CGGCGTCCTTA) | 0.113
12 | CGGAGTCCTTGGGTTCTAACCTGTTGCTA (site CGGGGTCCTTA) | 0.0775
13 | CGGAGTCCTTGGGTTCTAACCTGTTGCTA (site CGGTGTCCTTA) | 0.102
14 | CGGCAGTCTTGGGTTCTAACCTGTTGCGT (site CGACAGTCTAC) | 2.34
15 | CGGCAGTCTTGGGTTCTAACCTGTTGCGT (site CGGCAGTCTAC) | 2.6
16 | CGGCCCTCTTGGGTTCTAACCTGTTGCCT (site CAGCCCTCTAG) | 1.23

Row | Sequence | recombinant barcode read abundance (log10)
17 | CGGCCCTCTTGGGTTCTAACCTGTTGCCT (site CCGCCCTCTAG) | 0.29
18 | CGGCCCTCTTGGGTTCTAACCTGTTGCCT (site CGGCCCTCTAG) | 2.52
19 | CGGCCCTCTTGGGTTCTAACCTGTTGCCT (site CTGCCCTCTAG) | 0.185
20 | CGGCCGACTTGGGTTCTAACCTGTTGCGG (site CGGCCGACTCC) | 2.36
21 | CGGCCGACTTGGGTTCTAACCTGTTGCGG (site CGGGCGCCTCC) | 0.184
22 | CGGCTATCTTGGGTTCTAACCTGTTGCCT (site CGGCTATCTAG) | 0.194
23 | CGGCTATCTTGGGTTCTAACCTGTTGCCT (site TGGCTATCTAG) | 0.0495
24 | CGGCTCACTTGGGTTCTAACCTGTTGCCT (site CGGCTCACTAG) | 1.66
25 | CGGCTCACTTGGGTTCTAACCTGTTGCCT (site CGGCTGACTAG) | 0.123
26 | CGGGAAGCTTGGGTTCTAACCTGTTGCCT (site CGGGAAGCTAG) | 1.61
27 | CGGGAAGCTTGGGTTCTAACCTGTTGCCT (site CGGGGAGCTCG) | 0.287
28 | CGGGACCCTTGGGTTCTAACCTGTTGCCT (site CGGGACCCTAG) | 1.26
29 | CGGGACCCTTGGGTTCTAACCTGTTGCCT (site CGTGACCCTAA) | 0.634
30 | CGGGCAGCTTGGGTTCTAACCTGTTGCCT (site CGAGCAGCTAG) | 0.0303
31 | CGGGCAGCTTGGGTTCTAACCTGTTGCCT (site CGCGCAGCTAG) | 0.0844
32 | CGGGCAGCTTGGGTTCTAACCTGTTGCCT (site CGGGCAGCTAG) | 0.0664
